SMILES strings stand for the structures.

Data on 15 compounds can be found in patent publication US20230139171A1 (SITA Information Networking Computing UK Limited, priority 2019, published 2023).

Test [1] deals with T1, human TLR7 (Homo sapiens, UniProt Q9NYK1).
T1 construct: host or cells: HEK-Blue cells
T1 sequence (Q9NYK1 27-1049): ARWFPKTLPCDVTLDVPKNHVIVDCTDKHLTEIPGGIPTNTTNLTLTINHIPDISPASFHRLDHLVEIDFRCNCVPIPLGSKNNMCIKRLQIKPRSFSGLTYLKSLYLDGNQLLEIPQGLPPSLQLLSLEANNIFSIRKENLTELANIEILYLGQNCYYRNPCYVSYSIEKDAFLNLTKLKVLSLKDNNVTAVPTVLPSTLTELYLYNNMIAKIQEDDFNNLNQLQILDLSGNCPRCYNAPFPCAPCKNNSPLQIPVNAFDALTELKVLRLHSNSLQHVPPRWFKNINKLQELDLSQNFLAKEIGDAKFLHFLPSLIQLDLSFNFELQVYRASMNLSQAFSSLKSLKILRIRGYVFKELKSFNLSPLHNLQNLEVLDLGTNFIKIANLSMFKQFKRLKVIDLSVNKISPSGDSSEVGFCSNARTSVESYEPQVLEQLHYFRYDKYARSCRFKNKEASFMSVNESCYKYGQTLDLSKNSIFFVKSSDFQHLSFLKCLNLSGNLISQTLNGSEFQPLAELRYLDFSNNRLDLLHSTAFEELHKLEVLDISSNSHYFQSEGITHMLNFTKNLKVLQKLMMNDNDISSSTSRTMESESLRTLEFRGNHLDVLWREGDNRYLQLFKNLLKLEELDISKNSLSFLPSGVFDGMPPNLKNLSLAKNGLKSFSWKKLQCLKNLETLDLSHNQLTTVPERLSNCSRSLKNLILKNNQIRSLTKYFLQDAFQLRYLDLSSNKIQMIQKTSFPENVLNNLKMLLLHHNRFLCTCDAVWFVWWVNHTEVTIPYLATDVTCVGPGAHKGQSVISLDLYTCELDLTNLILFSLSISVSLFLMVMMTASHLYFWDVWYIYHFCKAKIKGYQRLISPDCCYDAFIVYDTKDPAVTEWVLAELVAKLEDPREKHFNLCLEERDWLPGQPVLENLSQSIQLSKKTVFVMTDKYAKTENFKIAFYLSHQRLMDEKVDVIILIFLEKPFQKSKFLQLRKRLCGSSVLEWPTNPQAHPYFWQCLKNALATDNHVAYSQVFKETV
As to the kind of experiment: TLR7 inhibition reporter assay (HEK-Blue cells, SEAP reporter, gardiquimod stimulation). The format is cell-based. The note with it: HEK-Blue cells overexpressing human TLR7, SEAP reporter, gardiquimod 7.5 μM; read-out: TLR7 IC50. The method, then:
(§1) TLR7/8/9 Inhibition Reporter Assays
(§2) HEK-Blue™-cells (Invivogen) overexpressing human TLR7, TLR8 or TLR9 receptors were used for screening inhibitors of these receptors using an inducible SEAP (secreted embryonic alkaline phosphatase) reporter gene under the control of the IFN-β minimal promoter fused to five NF-κB and AP-1-binding sites. Briefly, cells are seeded into Greiner 384 well plates (15000 cells per well for TLR7, 20,000 for TLR8 and 25,000 for TLR9) and then treated with test compounds in DMSO to yield a final dose response concentration range of 0.05 nM-50 μM. After a 30 minute compound pre-treatment at room temperature, the cells are then stimulated with a TLR7 ligand (gardiquimod at a final concentration of 7.5 μM), TLR8 ligand (R848 at a final concentration of 15.9 μM) or TLR9 ligand (ODN2006 at a final concentration of 5 nM) to activate NF-κB and AP-1 which induce the production of SEAP. After a 22 hour incubation at 37° C., 5% CO2, SEAP levels are determined with the addition of HEK-Blue™ Detection reagent (Invivogen), a cell culture medium that allows for detection of SEAP, according to manufacturer's specifications. The percent inhibition is determined as the % reduction in the HEK-Blue signal present in wells treated with agonist plus DMSO alone compared to wells treated with a known inhibitor.
For orientation: In a reporter assay the amount or activity of a reporter protein is the signal.

Test [2] has as its target T2, human TLR8 (Homo sapiens, UniProt Q9NR97).
T2 construct: host or cells: HEK-Blue cells
T2 sequence (Q9NR97 27-1041): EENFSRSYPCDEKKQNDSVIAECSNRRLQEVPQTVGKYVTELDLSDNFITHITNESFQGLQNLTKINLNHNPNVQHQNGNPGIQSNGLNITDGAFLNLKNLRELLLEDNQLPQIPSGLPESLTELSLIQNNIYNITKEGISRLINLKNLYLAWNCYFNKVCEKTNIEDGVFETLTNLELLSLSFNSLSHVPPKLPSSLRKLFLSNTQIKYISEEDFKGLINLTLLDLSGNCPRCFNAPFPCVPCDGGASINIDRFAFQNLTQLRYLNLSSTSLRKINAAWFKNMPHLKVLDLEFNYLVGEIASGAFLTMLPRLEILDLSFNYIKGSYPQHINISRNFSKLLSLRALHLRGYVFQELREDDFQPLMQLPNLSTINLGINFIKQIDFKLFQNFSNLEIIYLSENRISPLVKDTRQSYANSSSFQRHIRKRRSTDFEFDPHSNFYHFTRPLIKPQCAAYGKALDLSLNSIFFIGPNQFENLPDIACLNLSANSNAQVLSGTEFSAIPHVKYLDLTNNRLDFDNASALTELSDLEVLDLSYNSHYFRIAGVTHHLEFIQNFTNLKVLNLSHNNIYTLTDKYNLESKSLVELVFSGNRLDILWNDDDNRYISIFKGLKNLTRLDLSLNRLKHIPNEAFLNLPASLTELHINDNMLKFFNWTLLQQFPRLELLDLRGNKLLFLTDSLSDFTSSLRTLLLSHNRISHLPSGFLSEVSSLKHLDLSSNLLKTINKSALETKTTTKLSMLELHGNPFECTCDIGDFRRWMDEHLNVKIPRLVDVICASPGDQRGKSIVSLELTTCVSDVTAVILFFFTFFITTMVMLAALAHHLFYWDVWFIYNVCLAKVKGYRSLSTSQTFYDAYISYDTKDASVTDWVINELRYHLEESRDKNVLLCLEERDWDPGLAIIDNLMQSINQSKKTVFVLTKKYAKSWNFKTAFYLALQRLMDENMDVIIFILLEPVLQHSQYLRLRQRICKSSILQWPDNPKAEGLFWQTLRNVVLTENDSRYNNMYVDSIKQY
As to the kind of experiment: TLR8 inhibition reporter assay (HEK-Blue cells, SEAP reporter, R848 stimulation). Type of test: cell-based. The note with it: HEK-Blue cells overexpressing human TLR8, SEAP reporter, R848 15.9 μM; read-out: TLR8 IC50. The method, then:
as §1, §2

With `CC(C)c1c(-c2cn(C)c3ncccc23)[nH]c2sc(C3CCN(CC(N)=O)CC3)nc12` [Example 31, 2-(4-(6-isopropyl-5-(1-methyl-1H-pyrrolo[2,3-b]pyridin-3-yl)-4H-pyrrolo[3,2-d]thiazol-2-yl)piperidin-1-yl) acetamide], the figures for the IC50 in test [1] and in test [2] were 3.98 nM and 3.02 nM, respectively.

As to `CC(C)c1c(-c2cn(C)c3ncccc23)[nH]c2sc(C3CCN(C(=O)CN(C)C)CC3)nc12` [Example 32, 2-(dimethylamino)-1-(4-(6-isopropyl-5-(1-methyl-1H-pyrrolo[2,3-b]pyridin-3-yl)-4H-pyrrolo[3,2-d]thiazol-2-yl)piperidin-1-yl)ethan-1-one], the IC50 (usually the midpoint of a concentration-inhibition curve) in test [1] stood at 3.41 nM; in test [2] it was 15.9 nM.

For the compound `CC(C)c1c(-c2cn(C)c3ncccc23)[nH]c2sc(C3CCN(CCS(C)(=O)=O)CC3)nc12` [Example 33, 6-isopropyl-5-(1-methyl-1H-pyrrolo[2,3-b]pyridin-3-yl)-2-(1-(2-(methylsulfonyl)ethyl)piperidin-4-yl)-4H-pyrrolo[3,2-d]thiazole], the IC50 in test [1] turned out to be 3.86 nM; in test [2], 1.52 nM.

On to `CC(C)c1c(-c2cn(C)c3ncccc23)[nH]c2sc(C3CCN(C4COC4)CC3)nc12` [Example 34, 6-isopropyl-5-(1-methyl-1H-pyrrolo[2,3-b]pyridin-3-yl)-2-(1-(oxetan-3-yl)piperidin-4-yl)-4H-pyrrolo[3,2-d]thiazole], for which the IC50 amounted to 4.44 nM in test [1] and 4.94 nM in test [2].

Regarding `Cc1c(-c2[nH]c3sc(C4CCN(C5COC5)CC4)nc3c2C(C)C)cn2ncnc2c1C` [Example 43, 5-(7,8-dimethyl-[1,2,4]triazolo[1,5-a]pyridin-6-yl)-6-isopropyl-2-(1-(oxetan-3-yl)piperidin-4-yl)-4H-pyrrolo[3,2-d]thiazole], the results for the IC50 in test [1] and in test [2] were 2.54 nM and 5.22 nM, respectively.

As for `Cc1c(-c2[nH]c3sc(C4CCN(CCS(C)(=O)=O)CC4)nc3c2C(C)C)cn2ncnc2c1C` [Example 55, 5-(7,8-dimethyl-[1,2,4]triazolo[1,5-a]pyridin-6-yl)-6-isopropyl-2-(1-(2-(methylsulfonyl)ethyl)piperidin-4-yl)-4H-pyrrolo[3,2-d]thiazole], the IC50 in test [1] amounted to 2.99 nM; in test [2], 1.15 nM.

On to `CNC(=O)CN1CCC(c2nc3c(C(C)C)c(-c4cn5ncnc5c(C)c4C)[nH]c3s2)CC1` [Example 56, 2-(4-(5-(7,8-dimethyl-[1,2,4]triazolo[1,5-a]pyridin-6-yl)-6-isopropyl-4H-pyrrolo[3,2-d]thiazol-2-yl)piperidin-1-yl)-N-methylacetamide], for which the results for the IC50 in test [1] and in test [2] were 4.36 nM and 3.43 nM, respectively.

As for `CC(=O)N1CCC(c2nc3c(C(C)C)c(-c4cn5ncnc5c(C)c4C)[nH]c3s2)CC1` [Example 59, 1-(4-(5-(7,8-dimethyl-[1,2,4]triazolo[1,5-a]pyridin-6-yl)-6-isopropyl-4H-pyrrolo[3,2-d]thiazol-2-yl)piperidin-1-yl)ethan-1-one], the IC50 came out at 5.83 nM in test [1] and 47.2 nM in test [2].

As for `Cc1c(-c2[nH]c3sc(C4CCN(C5COC5)CC4)nc3c2C(C)C)cn(C)c(=O)c1C` [Example 60, 5-(6-isopropyl-2-(1-(oxetan-3-yl)piperidin-4-yl)-4H-pyrrolo[3,2-d]thiazol-5-yl)-1,3,4-trimethylpyridin-2(1H)-one], the IC50 stood at 36.6 nM in test [1] and 27.9 nM in test [2].

`Cc1c(-c2[nH]c3sc(C4CCN(CCS(C)(=O)=O)CC4)nc3c2C(C)C)cn(C)c(=O)c1C` [Example 61, 5-(6-isopropyl-2-(1-(2-(methylsulfonyl)ethyl)piperidin-4-yl)-4H-pyrrolo[3,2-d]thiazol-5-yl)-1,3,4-trimethylpyridin-2(1H)-one]: the IC50 is 22.7 nM in test [1] and 5.33 nM in test [2].

In the case of `Cc1c(-c2[nH]c3sc(C4CCN(CC(=O)N(C)C)CC4)nc3c2C(C)C)cn(C)c(=O)c1C` [Example 62, 2-(4-(6-isopropyl-5-(1,4,5-trimethyl-6-oxo-1,6-dihydropyridin-3-yl)-4H-pyrrolo[3,2-d]thiazol-2-yl)piperidin-1-yl)-N,N-dimethylacetamide], the IC50 in test [1] amounted to 88.6 nM; in test [2], 22.3 nM.

Regarding `CNC(=O)CN1CCC(c2nc3c(C(C)C)c(-c4cn(C)c(=O)c(C)c4C)[nH]c3s2)CC1` [Example 63, 2-(4-(6-isopropyl-5-(1,4,5-trimethyl-6-oxo-1,6-dihydropyridin-3-yl)-4H-pyrrolo[3,2-d]thiazol-2-yl)piperidin-1-yl)-N-methylacetamide], the IC50 in test [1] is 24.8 nM; in test [2], 14.6 nM.

`Cc1c(-c2[nH]c3sc(C4CCN(CC(N)=O)CC4)nc3c2C(C)C)cn(C)c(=O)c1C` [Example 64, 2-(4-(6-isopropyl-5-(1,4,5-trimethyl-6-oxo-1,6-dihydropyridin-3-yl)-4H-pyrrolo[3,2-d]thiazol-2-yl)piperidin-1-yl)acetamide]: the results for the IC50 in test [1] and in test [2] were 32.7 nM and 10.4 nM, respectively.

Consider `Cc1c(-c2[nH]c3sc(N4CCN(CCS(C)(=O)=O)CC4)nc3c2C(C)C)cn2ncnc2c1C` [Example 282, 5-(7,8-dimethyl-[1,2,4]triazolo[1,5-a]pyridin-6-yl)-6-isopropyl-2-(4-(2-(methylsulfonyl)ethyl)piperazin-1-yl)-4H-pyrrolo[3,2-d]thiazole], for which the IC50 in test [1] was 29.8 nM; in test [2] it was 5.33 nM.

Regarding `Cc1cc(-c2[nH]c3sc(N4CCN(CC(C)(C)O)C[C@H]4C)nc3c2C(C)C)cn2ncnc12` [Example 359, (R)-1-(4-(6-isopropyl-5-(8-methyl-[1,2,4]triazolo[1,5-a]pyridin-6-yl)-4H-pyrrolo[3,2-d]thiazol-2-yl)-3-methylpiperazin-1-yl)-2-methylpropan-2-ol], the IC50 in test [1] came to 1120 nM.
